From US20040019430A1, “Methods and systems for analyzing complex biological systems” (priority 2001, published 2004)
“Also recorded” adds a separate entry of the source.

What was measured:
[1] = system: Arabidopsis thaliana plants; test: SOA1 phenotypic analysis of herbicide-treated Arabidopsis plants (MIC, Tmic, leaf traits); type: in vivo; conditions: for Dev. leafCurling / Dev. leafTwisting / Dev. matureLeafAnthocyanins / Dev. matureLeafChlorosis / Dev. matureLeafNecrosis / Dev. newLeafAnthocyanins / Dev. newLeafChlorosis / Dev. newLeafNecrosis / Dev. pointedLeaves: numeric value standardized to mock treated; for Dev. leafWidth: numeric value standardized to the average response for the mock treated tissues; for Symptom Class: three-week-old Arabidopsis plants treated with herbicide, phenotype classes of FIG. 12; for Characteristic symptoms (phenotype): herbicide treated Arabidopsis
Arabidopsis thaliana [2] = test: MOA1 phenotypic profiling of Arabidopsis sprayed with unknown and commercial herbicides; type: in vivo
Arabidopsis thaliana [3] = test: MOA1 biochemical (metabolite) profiling by LC-MS and GC-MS; conditions: for Stress-related (commonly regulated) metabolites: MOA1, 20 min and 1 hr after spraying
[4] = system: N-starved Arabidopsis plants; conditions: nitrate addition to N-starved Arabidopsis; cited from earlier work

SMILES | Dev. tMic [1] | Dev. leafCurling [1] | Dev. leafTwisting [1] | Dev. matureLeafAnthocyanins [1] | Dev. matureLeafChlorosis [1] | Dev. matureLeafNecrosis [1] | Dev. newLeafAnthocyanins [1] | Dev. newLeafChlorosis [1] | Dev. newLeafNecrosis [1] | Dev. pointedLeaves [1] | Dev. leafWidth [1] | Characteristic symptoms (phenotype) [1] | other results
O=C(O)COc1ccc(Cl)cc1Cl [2,4-D] | 2 | 1 | 2 | 1 | 2 | 0 | 0 | 1 | 0 | 0 | −1 | – | Symptom Class [1]: 5
O=C(O)c1cc(Oc2ccc(C(F)(F)F)cc2Cl)ccc1[N+](=O)[O-] [Acifluorfen] | 1 | 1 | 0 | 0 | 0 | 1 | 0 | 0 | 3 | 0 | 0 | Necrotic leaf flecks | –
Nc1nc[nH]n1 [Amitrole] | 2 | −1 | 0 | 0 | 3 | 0 | 0 | 4 | 0 | 0 | 2 | leaf bleaching and leaf enlargement | Hierarchical cluster analysis of the eleven phenotypic characteristics / phenotype (Arabidopsis thaliana [2]; Ward's method): exhibited chlorosis and not true bleaching
CCNc1nc(Cl)nc(NC(C)C)n1 [Atrazine] | 1 | 1 | 0 | 0 | 1 | 4 | 0 | 1 | 4 | 1 | −1 | rapid and widespread leaf necrosis | –
O=C(O)Cn1c(=O)sc2cccc(Cl)c21 [Benazolin] | 2 | 2 | 2 | 0 | 0 | 0 | 0 | 0 | 0 | 0 | −2 | – | –
CC(C)N1C(=O)c2ccccc2NS1(=O)=O [Bentazon] | 1 | 2 | 0 | 0 | 2 | 4 | 0 | 2 | 4 | 1 | −2 | rapid and widespread leaf necrosis | –
COC(=O)c1cc(Oc2ccc(Cl)cc2Cl)ccc1[N+](=O)[O-] [Bifenox] | 1 | 1 | 0 | 0 | 0 | 1 | 0 | 0 | 3 | 0 | 0 | Necrotic leaf flecks | –
CCSC(=O)N(CC(C)C)CC(C)C [Butylate] | – | – | – | – | – | – | – | – | – | – | – | – | Herbicidal phenotype (Arabidopsis thaliana [2]): neither showed a strong herbicidal phenotype; Stress-related (commonly regulated) metabolites (Arabidopsis thaliana [3]): neither butylate nor chlorpropham treatment resulted in many changes
CC(C)OC(=O)Nc1cccc(Cl)c1 [Chloropropham] | – | – | – | – | – | – | – | – | – | – | – | – | Herbicidal phenotype (Arabidopsis thaliana [2]): neither showed a strong herbicidal phenotype; Stress-related (commonly regulated) metabolites (Arabidopsis thaliana [3]): neither butylate nor chlorpropham treatment resulted in many changes
COc1nc(C)nc(NC(=O)NS(=O)(=O)c2ccccc2Cl)n1 [Chlorsulfuron] | 2 | 1 | 1 | 3 | 2 | 0 | 0 | 2 | 0 | 0 | −1 | anthocyanin accumulation in the older leaves accompanied by chlorosis of the newly emerging leaves | –
COc1c(Cl)ccc(Cl)c1C(=O)O [Dicamba] | 2 | 2 | 2 | 0 | 2 | 0 | 0 | 0 | 0 | 0 | −2 | – | –
c1cc[n+]2c(c1)-c1cccc[n+]1CC2 [Diquat] | 2 | 2 | 0 | 0 | 1 | 4 | 0 | 1 | 4 | 1 | −2 | rapid and widespread leaf necrosis | Symptom Class [1]: 7
CN(C)C(=O)Nc1ccc(Cl)c(Cl)c1 [Diuron] | 1 | 1 | 0 | 0 | 2 | 4 | 0 | 2 | 4 | 1 | −2 | rapid and widespread leaf necrosis | Symptom Class [1]: 7
CC(C)C1(C)N=C(c2ncccc2C(=O)O)NC1=O (stereo not drawn) [Imazapyr] | 2 | 0 | 0 | 2 | 0 | 0 | 0 | 2 | 0 | 0 | 0 | anthocyanin accumulation in the older leaves accompanied by chlorosis of the newly emerging leaves | Stress-related (commonly regulated) metabolites (Arabidopsis thaliana [3]): Only a few, if any, stress-related metabolites were observed
CCc1cnc(C2=NC(C)(C(C)C)C(=O)N2)c(C(=O)O)c1 (stereo not drawn) [Imazethapyr] | 2 | 1 | 1 | 3 | 0 | 0 | 0 | 2 | 0 | 0 | 0 | anthocyanin accumulation in the older leaves accompanied by chlorosis of the newly emerging leaves | –
CS(=O)(=O)c1cc(C(F)(F)F)ccc1C(=O)c1cnoc1C1CC1 [Isoxaflutole] | – | – | – | – | – | – | – | – | – | – | – | – | Alpha-tocopherol levels (Arabidopsis thaliana [3]; relative to control, early time points): not significantly changed relative to the control; Tyrosine and phenylalanine levels (Arabidopsis thaliana [3]; relative to control, early time points, 1 hr): up-regulated relative to the control; also recorded: began to accumulate relative to the control after one hour
CCc1cccc(C)c1N(C(=O)CCl)C(C)COC (stereo not drawn) [Metolachlor] | 2 | 2 | 1 | 0 | 0 | 3 | 0 | 0 | 3 | 1 | −1 | – | –
CSc1nnc(C(C)(C)C)c(=O)n1N [Metribuzin] | 1 | 1 | 0 | 0 | 2 | 4 | 0 | 2 | 4 | 1 | −2 | rapid and widespread leaf necrosis | –
O=[N+]([O-])O [Nitrate, nitrate] | – | – | – | – | – | – | – | – | – | – | – | – | Nitrate Regulation of Glutamate synthetase [4]: ↑; Nitrate Regulation of Glutamine synthetase (2) [4]: ↑; Nitrate Regulation of MADs Box (2) [4]: ↓; Nitrate Regulation of MYB transcription factor [4]: ↑; Nitrate Regulation of Malate Dehydrogenase [4]: ↑; Nitrate Regulation of Nitrate transporter [4]: ↑; Nitrate Regulation of Phosphate transporter [4]: ↑; Nitrate Regulation of Transaldolase [4]: ↑; Nitrate Regulation of Transketolase [4]: ↑
CNc1cnn(-c2cccc(C(F)(F)F)c2)c(=O)c1Cl [Norfluazon, norflurazon] | – | – | – | – | – | – | – | – | – | – | – | – | Stress-related (commonly regulated) metabolites (Arabidopsis thaliana [3]): Only a few, if any, stress-related metabolites were observed
C[n+]1ccc(-c2cc[n+](C)cc2)cc1 [Paraquat] | 2 | 2 | 0 | 0 | 1 | 4 | 0 | 1 | 4 | 1 | −1 | rapid and widespread leaf necrosis | Symptom Class [1]: 7
